Reference: ChEMBL document CHEMBL4808148, “HDAC6 screening dataset using tau-based substrate in an enzymatic assay yields selective inhibitors and activators” (2021)

Target: T1, Protein deacetylase HDAC6 (Homo sapiens) (UniProt Q9UBN7)
T1 sequence (whole entry): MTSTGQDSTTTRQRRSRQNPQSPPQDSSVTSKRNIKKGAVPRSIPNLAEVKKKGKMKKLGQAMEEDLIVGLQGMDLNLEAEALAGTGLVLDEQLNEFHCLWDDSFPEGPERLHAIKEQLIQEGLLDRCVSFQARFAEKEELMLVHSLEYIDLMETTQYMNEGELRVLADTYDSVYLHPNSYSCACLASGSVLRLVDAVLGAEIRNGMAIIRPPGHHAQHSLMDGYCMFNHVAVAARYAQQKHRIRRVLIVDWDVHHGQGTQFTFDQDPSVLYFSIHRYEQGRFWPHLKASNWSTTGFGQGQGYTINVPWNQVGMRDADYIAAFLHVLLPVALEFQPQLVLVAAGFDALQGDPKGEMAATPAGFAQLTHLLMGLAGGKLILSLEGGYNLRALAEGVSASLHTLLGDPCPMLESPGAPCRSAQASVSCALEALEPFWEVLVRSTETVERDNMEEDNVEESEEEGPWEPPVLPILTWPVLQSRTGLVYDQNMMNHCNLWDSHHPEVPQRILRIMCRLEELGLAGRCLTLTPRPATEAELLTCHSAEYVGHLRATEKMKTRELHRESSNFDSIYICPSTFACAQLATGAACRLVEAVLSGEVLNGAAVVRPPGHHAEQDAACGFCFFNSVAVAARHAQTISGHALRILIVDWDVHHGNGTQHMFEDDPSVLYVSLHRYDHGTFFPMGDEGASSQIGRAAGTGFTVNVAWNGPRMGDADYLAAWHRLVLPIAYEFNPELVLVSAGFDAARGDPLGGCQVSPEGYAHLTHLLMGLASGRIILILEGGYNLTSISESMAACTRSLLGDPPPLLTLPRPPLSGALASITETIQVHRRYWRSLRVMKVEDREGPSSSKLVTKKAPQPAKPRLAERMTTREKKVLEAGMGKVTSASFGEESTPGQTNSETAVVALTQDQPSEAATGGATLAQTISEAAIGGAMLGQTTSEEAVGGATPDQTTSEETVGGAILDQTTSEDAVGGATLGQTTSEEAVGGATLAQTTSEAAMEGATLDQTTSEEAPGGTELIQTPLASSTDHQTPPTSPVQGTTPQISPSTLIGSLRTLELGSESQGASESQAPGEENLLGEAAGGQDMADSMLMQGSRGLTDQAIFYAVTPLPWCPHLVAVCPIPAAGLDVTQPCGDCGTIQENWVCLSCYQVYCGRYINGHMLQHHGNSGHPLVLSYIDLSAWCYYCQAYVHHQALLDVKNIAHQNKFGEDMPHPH
Settings: at 10 µM

SMILES	inhibition [%]
CC(C)(C)c1ccc(C(=O)Nc2cn3cc(-n4ccnc4)ccc3n2)cc1	67.2
CCOc1ccc(S(=O)(=O)O)c2cccnc12	-1.18
O=C1C(Cl)=C(N2CCOCC2)C(=O)N1c1ccc(Cl)c(Cl)c1	83.8
COc1cc(OC)cc(-c2ccc3c(-c4ccc(F)cc4)n[nH]c3n2)c1	47.1
Cc1cc(O)c2c(=O)c3c(O)cc(O)c4c5c(O)cc(O)c6c(=O)c7c(O)cc(C)c8c1c2c(c34)c(c78)c65	66.5
CCCCc1nc2cc(/C=C/C(=O)NO)ccc2n1CCN(CC)CC	83.5
CC(C)c1ccc2oc3nc(N)c(C(=O)O)cc3c(=O)c2c1	108
N#C/C(=C\c1ccc(O)c(O)c1)C(=O)Nc1ccccc1	58.9
C[C@H](NCc1ccc(OCc2cccc(F)c2)cc1)C(N)=O	84.6
Cc1cc(O)c2c(c1)C(=O)c1cccc(O)c1C2=O	65.1
O=C1NC(=O)/C(=C/c2ccc(-c3ccc(F)cc3O)o2)S1	94.9
NCCNc1ccc(NCCN)c2c1C(=O)c1ccncc1C2=O	108
COC(=O)Nc1nc2cc(SC(C)C)ccc2[nH]1	87.7
O=C(CCCCCN1C(=O)c2cccc3cccc(c23)C1=O)NO	104
O=C(O)CNC(=O)c1c(O)c2ccccc2n(Cc2ccccc2)c1=O	73.4
C[C@@H]1CC(=O)c2c(ccc3c2C(=O)c2cccc(O)c2C3=O)C1	105
O=C(Nc1ccc(O)cc1)c1ccccc1O	100
O=C(CCCCCCNC(=O)c1cnc(N(c2ccccc2)c2ccccc2)nc1)NO	105
Cc1cn([C@H]2C=C[C@@H](CO)O2)c(=O)[nH]c1=O	19.5
Nc1nc(N)c(N=O)c(OCC2CCCCC2)n1	83.5
CC(C)(C)C1CCc2c(sc(NC(=O)c3ccco3)c2C(=O)O)C1 (stereo unspecified)	73.7
C/C(=N\NC(=N)N)c1cc(NC(=O)CCCCCCCCC(=O)Nc2cc(/C(C)=N/NC(=N)N)cc(/C(C)=N/NC(=N)N)c2)cc(/C(C)=N/NC(=N)N)c1	57.5
N#Cc1cc(F)cc(-c2nc(-c3ccc(F)cn3)no2)c1	55.6
c1ccc(CCNc2nc(-c3ccccc3)cs2)cc1	96.5

SMILES	inhibition [%]
CCN(CC)C(=O)Nc1ccc(OCC(O)CNC(C)(C)C)c(C(C)=O)c1 (stereo unspecified)	27.1
COc1ccc(N(C(=O)Oc2c(C)cccc2C)c2ccnc(Nc3ccc(N4CCN(C)CC4)cc3)n2)c(OC)c1	-5.43
Nc1ccc(/N=N/c2ccccc2)c(N)n1	106
O=C(O)Cc1ccc2c(c1)C(=O)c1ccccc1CO2	64.3
COc1ccc(-c2nc(N3CCOCC3)c3sc(CN(C)c4ncc(C(=O)NO)cn4)cc3n2)cn1	104
Cc1ccc(NC(=O)c2ccc(CN3CCN(C)CC3)cc2)cc1Nc1nc(-c2cccnc2)cs1	22.6
Cc1[nH]c(/C=C2\C(=O)Nc3cc(-c4ccccc4)ccc32)c(C)c1CCC(=O)O	90.4
CCCCOC(=O)c1cc2c(cn1)[nH]c1ccccc12	91.6
CC1(C)CNc2cc(NC(=O)c3cccnc3NCc3ccncc3)ccc21	78.2
COc1ccc(Nc2ccn(-c3ccccc3)n2)cc1	111
c1cc(Nc2cc(C3CC3)n[nH]2)nc(Nc2ccc3[nH]cnc3c2)n1	66.6
CCOc1cc(/C=C2/C(=O)N(c3ccccc3)N=C2C)cc(Cl)c1OCC(=O)OC	16.6
Cn1ccc2cc(NC(=O)Nc3cccnc3)ccc21	50.6
CC(=O)Oc1ccccc1C(=O)Nc1ncc([N+](=O)[O-])s1	110
O=C(NCc1ccc2c(c1)OCO2)c1c(Cl)cccc1Cl	17.4
O=C(Oc1ccccc1)c1ccccc1O	67.9
CC(C)COC(=O)c1ccc(N)cc1	82.1
Cn1cc(/C=C2/C(=O)Nc3cccnc32)c2ccccc21	109
CCC(CC)(CC(=O)Nc1cccc(/C=C/c2nc(C3CCC3)cs2)c1)C(=O)O	36.2
NS(=O)(=O)c1nn2cc(-c3ccccc3)nc2s1	81.9
Cc1cc(C)c(N)c(C#Cc2cccc(F)c2)n1	74.2
CC(C)(C)c1[nH]cnc1/C=c1\[nH]c(=O)/c(=C/c2ccccc2)[nH]c1=O	80.7
O=c1c2ccccc2oc2ccccc12	61.8
O=C(/C=C/c1ccc(O)cc1)c1ccc(O)cc1O	97.8

SMILES	inhibition [%]
Cc1nc2ccc(-n3ncc(C(=O)c4cc5ccccc5[nH]4)c3N)cc2[nH]1	112
c1ccc(-c2cnn3cc(-c4ccc(OCCN5CCOCC5)cc4)cnc23)cc1	106
NS(=O)(=O)c1cc2c(cc1Cl)N=C(CSCc1ccccc1)NS2(=O)=O	42.3
Cc1cc(C)c(S(=O)(=O)Nc2cccc(C(F)(F)F)c2)c(C)c1	-5.7
O=C(/C=C/c1ccc(O)c(O)c1)OCCc1ccccc1	47.2
c1ccc2sc(SNC3CCCCC3)nc2c1	23.2
CN1CCCN=C1/C=C/c1cccs1	42
OCCOCCN1CCN(C(c2ccccc2)c2ccc(Cl)cc2)CC1 (stereo unspecified)	-6.68
O=C1Cc2c([nH]c3ccc(Br)cc23)-c2ncccc2N1	92.8
N#Cc1c(O)c2c(-c3ccc(-c4ccccc4O)cc3)csc2[nH]c1=O	57.7
NS(=O)(=O)c1cc2c(cc1C(F)(F)F)NC(Cc1ccccc1)NS2(=O)=O (stereo unspecified)	36
O=C(Nc1ccc2[nH]ccc2c1)c1ccccc1	86.3
COc1ccc(-c2cc(=O)c3c(O)cc(O)cc3o2)cc1O	102
O=C(OCC(O)CO)c1ccccc1Nc1ccnc2cc(Cl)ccc12 (stereo unspecified)	83.6
O=c1c(O)c(-c2ccc(O)c(O)c2)oc2cc(O)cc(O)c12	108
CC(C)[C@H](C(=O)Nc1ccc(C(=O)NO)cc1)c1ccccc1	101
O=C(O)c1ccc2nc(-c3cc(Cl)cc(Cl)c3)oc2c1	88.2
COc1ccc(-c2coc3cc(O)cc(O)c3c2=O)cc1	101
O=C1Cc2c([nH]c3ccc(Br)cc23)-c2ccccc2N1	96.6
Cc1cc(NCCO)nc(-c2ccc(Br)cc2)n1	64.4
Nc1ncnc(Nc2ccc(Cl)cc2)n1	59.8
N=C(NCCC[C@H](N)C(=O)O)N[N+](=O)[O-]	0.71
CCCn1c(=O)c2[nH]c(-c3cnn(Cc4cccc(C(F)(F)F)c4)c3)nc2n(CC)c1=O	18.7
FC(F)(F)c1cc(NC(=S)Nc2ccc(Br)cc2-c2nnn[nH]2)cc(C(F)(F)F)c1	31.7

SMILES	inhibition [%]
Cc1[nH]cnc1-c1ccc(Cl)cc1	94.8
Cc1cc(C)c(/C=C2\C(=O)Nc3ccccc32)[nH]1	36.4
O=c1c2ccccc2[se]n1-c1ccccc1	3.77
N#C/C(=C\c1ccc(O)c(O)c1)C(=O)NCCCc1ccccc1	33.8
CN(Cc1ccccc1)C(=O)[C@H](Cc1ccc2ccccc2c1)NC(=O)[C@@H]1C[C@@H](O)CN1C(=O)c1cn(C)c2ccccc12	6.39
CN1CCN(c2ccc3nc(-c4c(N)c5c(F)cccc5[nH]c4=O)[nH]c3c2)CC1	63
COc1ccc(-c2nc3cc(C4=NNC(=O)CC4C)ccc3[nH]2)cc1 (stereo unspecified)	97.8
Cc1c(CN(C)C(=O)/C=C/c2cnc3c(c2)CCC(=O)N3)oc2ccccc12	0.5
O=C(/C=C/c1ccc2c(c1)OCO2)N1CCCCC1	89.8
O=C(N/N=C/c1ccccc1O)c1ccccc1O	107
O=C1c2ccccc2C(=O)C1c1ccc(Br)cc1	38.3
O=C(NC1CC1)c1cc(-c2cccs2)on1	70.5
CN1CCc2c(c3ccccc3n2Cc2ccc(C(=O)NO)cc2)C1	99.5
COc1ccc(C2C(=O)c3ccccc3C2=O)cc1	99.8
O=C(Nc1ccc(Br)cc1)c1cc(Br)cc(Br)c1O	30.8
CC(=O)Oc1ccccc1C(=O)Nc1ccccc1	61.5
CN(C)Cc1c(C(=O)NCCOc2ccc(C(=O)NO)cc2)oc2ccccc12	102
C/N=c1/nc(-c2ccccc2)n(-c2ccccc2)s1	81.7
CN(C)CC/C=C1\c2ccccc2Sc2ccc(Cl)cc21	94.5
CC(C)Oc1ccc2c(=O)c3cc(C(=O)O)ccc3oc2c1	64.7
CN1[C@@H]2C[C@@H](O)C[C@H]1[C@@H]1O[C@@H]12	67.9
CN1CCCN=C1/C=C/c1cccc(O)c1	53.6
COc1ccccc1OCC(O)COC(N)=O (stereo unspecified)	8.29
CCC(=O)NO	37.4
